Reference: ChEMBL document CHEMBL1145580, “Synthesis of diketopiperazine-based carboline homodimers and in vitro growth inhibition of human carcinomas” (2008)

Tests used:
Type in all cases: functional
PC-3 [1] = assay: Cytotoxicity against human PC3 cells assessed as cell survival at 100 uM relative to control; conditions: read-out: Activity
PC-3 [2] = assay: Cytotoxicity against human PC3 cells assessed as cell survival at 10 uM relative to control; conditions: read-out: Activity
NCI-H520 [3] = assay: Cytotoxicity against human NCI-H520 cells assessed as cell survival at 10 uM relative to control; conditions: read-out: Activity
NCI-H520 [4] = assay: Cytotoxicity against human NCI-H520 cells assessed as cell survival at 50 uM relative to control; conditions: read-out: Activity
NCI-H520 [5] = assay: Growth inhibition of human NCI-H520 cells
NCI-H520 [6] = assay: Cytotoxicity against human NCI-H520 cells assessed as cell survival at 100 uM relative to control; conditions: read-out: Activity
PC-3 [7] = assay: Cytotoxicity against human PC3 cells assessed as cell survival at 50 uM relative to control; conditions: read-out: Activity
PC-3 [8] = assay: Growth inhibition of human PC3 cells

| GI50 (NCI-H520 [5]) | GI50 (PC-3 [8]) | SMILES | viability at 100 µM (PC-3 [1]) | viability at 10 µM (PC-3 [2]) | viability at 10 µM (NCI-H520 [3]) | viability at 50 µM (NCI-H520 [4]) | viability at 100 µM (NCI-H520 [6]) | viability at 50 µM (PC-3 [7]) |
| --- | --- | --- | --- | --- | --- | --- | --- | --- |
| 61.5 µM | 55.3 µM | COc1cc([C@H]2c3[nH]c4ccccc4c3C[C@@H]3C(=O)N4[C@@H](c5cc(OC)c(O)c(OC)c5)c5[nH]c6ccccc6c5C[C@@H]4C(=O)N23)cc(OC)c1O | 15.7% | > 100% | 88.7% | 53.2% | 26.8% | 43.6% |
|  |  | COc1cc([C@@H]2c3[nH]c4ccccc4c3C[C@H]3C(=O)N4[C@H](c5cc(OC)c(OC)c(OC)c5)c5[nH]c6ccccc6c5C[C@H]4C(=O)N23)cc(OC)c1OC | 65% | 93% | 90.3% | 90.8% | 86.7% | 80.5% |
|  |  | COc1cc([C@H]2c3[nH]c4ccccc4c3C[C@@H]3C(=O)N4[C@@H](c5cc(OC)c(OCc6ccccc6)c(OC)c5)c5[nH]c6ccccc6c5C[C@@H]4C(=O)N23)cc(OC)c1OCc1ccccc1 | 65.1% | > 100% | > 100% | > 100% | 84.5% | 92.7% |
| 13.5 µM | 12.5 µM | COc1cc([C@@H]2c3cc4c(cc3[C@@H](O[C@@H]3O[C@@H]5CO[C@@H](C)O[C@H]5[C@H](O)[C@H]3O)[C@H]3COC(=O)[C@H]23)OCO4)cc(OC)c1O [ETOPOSIDE] | 30.8% | 73.8% | 78.6% | 35.2% | 21.3% | 41.2% |
|  |  | COc1cc([C@H]2c3[nH]c4ccccc4c3C[C@@H]3C(=O)N4[C@@H](c5cc(OC)c(OC)c(OC)c5)c5[nH]c6ccccc6c5C[C@@H]4C(=O)N23)cc(OC)c1OC | 77.4% | > 100% | 99.8% | 98.9% | 98.9% | > 100% |
| 21.5 µM | 21.9 µM | COc1cc([C@@H]2c3[nH]c4ccccc4c3C[C@H]3C(=O)N4[C@H](c5cc(OC)c(O)c(OC)c5)c5[nH]c6ccccc6c5C[C@H]4C(=O)N23)cc(OC)c1O | 1.6% | 80.7% | 67.3% | 16.5% | 5.8% | 3.3% |
|  |  | COc1cc([C@@H]2c3[nH]c4ccccc4c3C[C@H]3C(=O)N4[C@H](c5cc(OC)c(OCc6ccccc6)c(OC)c5)c5[nH]c6ccccc6c5C[C@H]4C(=O)N23)cc(OC)c1OCc1ccccc1 | 54.5% | 98.2% | 88.1% | 81.3% | 81% | 68.8% |

| SMILES | GI50 (NCI-H520 [5]) | GI50 (PC-3 [8]) | viability at 100 µM (PC-3 [1]) | viability at 10 µM (PC-3 [2]) | viability at 10 µM (NCI-H520 [3]) | viability at 50 µM (NCI-H520 [4]) | viability at 100 µM (NCI-H520 [6]) | viability at 50 µM (PC-3 [7]) |
| --- | --- | --- | --- | --- | --- | --- | --- | --- |
| CC(C)=CCc1[nH]c2ccccc2c1C[C@@H]1NC(=O)[C@H]2CCCN2C1=O |  | 12.3 µM |  |  |  |  |  |  |
